Patent publication US20240156755A1, “USE OF RIP1 INHIBITOR OR MLKL INHIBITOR FOR TREATING OR PREVENTING HEREDITARY RETINAL DYSTROPHY” (TZU CHI UNIVERSITY, priority 2022, published 2024)
Entries after “also recorded” stand apart in the source; their conditions may differ.

Assays:
[1] = test system: Pomgnt1^L120R/L120R mice; assay: Scotopic ERG after treatment of Pomgnt1^L120R/L120R mice; type: in vivo; conditions: 6-month-old mice, 3 months after injection; compared with AAV8-GFP treated group; RIPA-56 10 mg/Kg twice a week IP; AAV 1 μL 1×10^9 vg subretinal
Method: To evaluate retinal function in vivo, ERG was recorded with various light stimulus intensities under dark-adapted scotopic condition. Scotopic ERG records rod photoreceptor (a-wave), signal from rod to rod bipolar cell (b-wave), and retinal pigment epithelium (c-wave). […] This reduction in ERG a-, b, and c-wave amplitude indicated the function of rod photoreceptor, rod bipolar cells post-synaptic signal and RPE were greatly affected in Pomgnt1^L120R/L120R mouse retina.

[2] = test system: POMGNT1 knockout human RPE cells; assay: Immunoblotting of autophagy-related proteins and necroptosis markers; type: cell-based
[3] = test system: POMGNT1 knockout human RPE cells; assay: Trans-epithelial electrical resistance (TEER) of RPE monolayers; type: cell-based; conditions: transwell culture
Method: The RPE is a polarized epithelial monolayer which lies between the photoreceptors and the choroid. The RPE is essential to keep neural retinal healthy by maintenance of many important functions including light absorption, trans-epithelial transport, phagocytosis, and secretion of growth factors. The feature of healthy RPE is the generation of a trans-epithelial electrical resistance by specific tight junctions between epithelial cells. Trans-epithelial electrical resistance (TEER) was determined in RPE monolayers in WT and POMGNT1 knockout cells using Millicell-ERS Voltmeter (MERS00002, EMD Millipore) with transwell culture to evaluate the cell monolayer integrity.
POMGNT1 knockout human RPE cell were treated with RIPA-56, a potent, selective RIP1 inhibitor or with GW806742X, a MLKL inhibitor.

SMILES | scotopic ERG a-, b-, and c-wave amplitudes [1] | expression of beclin1, p62 and LC3b [2] | phospho-RIP3 and phosphor-MLKL [2] | TEER level [3]
CCC(C)(C)C(=O)N(O)Cc1ccccc1 [RIPA-56] | significantly improved | significantly decrease | inhibit | significant improvement; also recorded: improve
CN(c1ccc(NC(=O)Nc2ccc(OC(F)(F)F)cc2)cc1)c1ccnc(Nc2cccc(S(N)(=O)=O)c2)n1 [GW806742X] | – | – | – | significant improvement
